Reference: US20110071094A1, “(D)-ALLOSE INDUCING PROGRAMMED CELL DEATH IN HORMONE REFRACTORY PROSTATE CANCER LINES” (INDUSTRY-ACADEMIC COOPERATION FOUDATION, GYEONGSANG …, priority 2008, published 2011)

Legend:
Format in all cases: cell-based, human
DU145 cell line [1] = assay: Mitochondrial Δψm by JC-1, flow cytometry; settings: DU145, 20 and 40 mM, 24, 48 and 72 h
Protocol: Mitochondrial Δψm was measured by JC-1 mitochondrial membrane potential detection kit (Biotium Inc, Hayward, Calif., USA) according to the manufacturer's protocol. Briefly, DU145 cell line (1×10^6 cells in triplicate culture plates) was harvested after treatments with 0, 20 and 40 mM of D-allose for up to 72 h as mentioned above, stained with […] JC-1 reagent at 37° C. for 15 min and resuspended twice in 1× assay buffer. Changes in mitochondrial Δψm were measured at the single cell level by FACSCalibur flow cytometer (Becton Dickinson, San Jose, Calif., USA) under the following conditions: FL1, 511 volts; FL2, 389 volts; FL1-10.5% FL2; FL2-25.9% FL1; 488 nm argon excitation laser and 585 nm band pass filter. In total 10,000 cells were acquired for analysis by CellQuest software, version 3.0 (Becton Dickinson, San Jose, Calif., USA), and the quantification of cells with low mitochondrial Δψm as the percentage of total cell population was performed. Further, the DU145 cell line was seeded onto chamber slides with 1×10^5 cells/chamber in 500 μl of complete culture medium containing 0, 20 and 40 mM of D-allose for 72 h, permeabilized with 0.1% Triton, stained with 1×JC-1 reagent in dark, mounted with Prolong Antifade reagent (Molecular Probes, Eugene, Oreg., USA), and images (JC-1, green) were acquired by use of a fluorescence microscope (Axioplan 2, Carl Zeiss, Germany).

DU145 cell line [2] = assay: Fura-2 measurement of [Ca^2+]c; settings: DU145, 20 and 40 mM, 48 h
Protocol: [Ca^2+]c was measured by fluorescent indicator fura-2 acetoxymethyl ester (fura-2 AM) as described in Malgaroli A et al., J. Cell. Biol. 105:2145-2155, 1987. Briefly, DU145 cell line (1×10^6 cells in triplicate culture plates) was exposed to 0, 20 and 40 mM of D-allose for 48 and 72 h and then incubated with serum-free culture media containing 5 μM of fura-2AM at 37° C. in dark for another 1 h. The cells were washed twice with Locke's solution (pH 7.3) and the fura-2 fluorescence signals of [Ca^2+]c were measured by luminescence spectrophotometer (LS 50B, Perkin Elmer, Boston, Mass., USA) using 340 and 380 nm as excitation wavelengths (λex), and 510 nm as emission wavelength (λem). […] The slides were mounted with Prolong Antifade reagent (Molecular Probes, Eugene, Oreg., USA), and images (JC-1, green) were acquired by use of a fluorescence microscope (Axioplan 2, Carl Zeiss, Germany).

Bcl-2/Bax ratio = assay: Calculation of Bcl-2/Bax ratio from densitometry of protein bands; settings: 72 h, 0.896 at 0 Mm
Protocol: After 0, 20 and 40 mM of D-allose treatments for 72 h, DU145 cell line (1×10^6 cells in triplicate culture plates) was harvested into cell lysis buffer (Cell Signaling, Danvers, Mass., USA) supplemented with 1 mM PMSF. The cells were then sonicated, centrifuged and protein concentration was measured by Bradford assay with the Bio-Rad protein assay solution using bovine serum albumin (BSA) as standard. Proteins (30 μg) were separated on a 12.5% SDS-PAGE under reducing conditions and transferred onto a PVDF membrane (Santa Cruz Biotechnology, Santa Cruz, Calif., USA). Prestained protein marker, broad range: 6-175 kDa (New England Biolabs Inc., Ipswich, Mass., USA) run in parallel for detection of the molecular weights of the proteins. […] Membrane was probed with a goat derived horseradish peroxidase-conjugated anti-rabbit IgG (1:1000; Santa Cruz Biotechnology, Santa Cruz, Calif., USA), and proteins were detected by the enhanced chemiluminescence (ECL) detection system according to the vendor's protocol (Amersham Biosciences, Piscataway, N.J., USA) followed by X-ray exposure. […] Bcl-2/bax ratios of D-allose treated groups were calculated on the basis of the densitometric analysis of the corresponding protein bands and compared the values with that of the untreated control.

## O=C[C@H](O)[C@H](O)[C@H](O)[C@H](O)CO [D-allose]
DU145 cell line [1]
  cells with low mitochondrial Δψm: appearance of a remarkable subpopulation of cells with low mitochondrial Δψm in a dose- and time-dependent manner
DU145 cell line [2]
  [Ca^2+]c: remarkably elevated
Bcl-2/Bax ratio; DU145, 20 Mm
  Bcl-2/Bax ratio: 0.335
Bcl-2/Bax ratio; DU145, 40 Mm
  Bcl-2/Bax ratio: 0.126
